The target in experiment [1] is MBP–β1AR6P + βarr1 (Meleagris gallopavo, UniProt P07700, C116L/C358A/D322K/DEL244-271/E130W/F327A/F338M/M44C/M90V/V103C). Nature of the experiment: Radioligand saturation binding, receptor in nanodiscs with βarr1. On the set-up: species or system turkey (Meleagris gallopavo). The conditions noted are these: read-out: apparent Kd.
In experiment [2] the target is MBP–β1AR6P (Meleagris gallopavo, UniProt P07700, C116L/C358A/D322K/DEL244-271/E130W/F327A/F338M/M44C/M90V/V103C). As to the kind of experiment: Radioligand saturation binding, receptor in nanodiscs. On the set-up: species or system turkey (Meleagris gallopavo). The conditions noted are these: read-out: apparent Kd.
In experiment [3] the target is MBP–β1AR6P + mini-Gs (Meleagris gallopavo, UniProt P07700, C116L/C358A/D322K/DEL244-271/E130W/F327A/F338M/M44C/M90V/V103C). Nature of the experiment: Radioligand saturation binding, receptor in nanodiscs with mini-Gs. Also on record: species or system turkey (Meleagris gallopavo). The following applies: read-out: apparent Kd.
For experiment [4], the system named is β44–V2R. Nature of the experiment: Arrestin recruitment bias from GloSensor cAMP. In kind it is cell-based, turkey (Meleagris gallopavo). The following applies: with reference to isoprenaline, equiactive comparison approach.

What is called pKd is the negative decadic logarithm of the Kd, by convention in mol/L.

pKd: −log10 of the molar value.

`CCCc1ccccc1OCC(O)CNC(C)C` (stereo not shown) [[^3H]DHA, tritiated dihydroalprenolol]: the pKd in experiment [1] was 8.22; in experiment [2], 8.22; in experiment [3], 8.82.
For the compound `COc1ccc(CC(C)NCC(O)c2ccc(O)c(NC=O)c2)cc1` (stereo not shown) [formoterol], the “bias factor (arrestin recruitment bias)” value in experiment [4] is reported as 2.3 ± 0.4.

Source of the values: paper PMC7115876 (Nature, 2020).
